Source: the NIST ThermoML archive (doi:10.1016/j.fluid.2015.07.045)
Numbers after ± are expanded uncertainties.

Experiments:
[1] = 298.15 K; 101.33 kPa; Liquid; Vibrating tube method
[2] = Boiling temperature at pressure P; conditions: 101.3 kPa; Liquid; Ebulliometric method (Recirculating still)

Row | mass density [1] [kg/m3] | Boiling temperature at pressure P [2] [°C] | SMILES
1 | 927.3 ± 0.4 | 57.1 ± 0.1 | COC(C)=O [methyl ethanoate]
2 | 1192.8 ± 0.6 | – | C[n+]1ccn(Cc2ccccc2)c1.[Cl-] [1-benzyl-3-methyl-1H-imidazolium chloride]
3 | 787.1 ± 0.4 | 64.54 ± 0.1 | CO [methanol]

Row | SMILES | mass density [1] [kg/m3] | Boiling temperature at pressure P [2] [°C]
4 | CCCCCCn1cc[n+](C)c1.[Br-] [3-hexyl-1-methyl-1H-imidazolium bromide] | 1229.2 ± 0.6 | –
5 | CCCCCCn1cc[n+](C)c1.[Cl-] [1-hexyl-3-methylimidazolium chloride] | 1044.3 ± 0.5 | –
